PMC10399917 (Journal of Molecular Cell Biology, 2023)

Molecular target: His-SPIKE-S2 (Severe acute respiratory syndrome coronavirus 2, UniProt P0DTC2)
Type: binding, SARS-CoV-2
Conditions: 25 µM

Row | Structure (SMILES) | Thermal shift of His-SPIKE-S2 compared to DMSO control
1 | Cc1cc2c(C(C)C)c(O)c(O)c(C=O)c2c(O)c1-c1c(C)cc2c(C(C)C)c(O)c(O)c(C=O)c2c1O [gossypol acetate] | showed thermal shift
2 | O=C(/C=C/c1ccc(O)c(O)c1)OCCc1ccccc1 [CAPE, caffeic acid phenethyl ester] | did not show a change in the thermal shift curve
3 | CC(C)c1onc(-c2c(Cl)cccc2Cl)c1COc1ccc(/C=C/c2cccc(C(=O)O)c2)c(Cl)c1 [GW4064] | interfered with the assay
4 | N#C/C(=C/c1ccc(O)c(O)c1)C(=O)NCc1ccccc1 [AG-490] | did not show a change in the thermal shift curve
